Reference: article PMC9834408, “The SPOC domain is a phosphoserine binding module that bridges transcription machinery with co- and post-transcriptional regulators” (Nature Communications, 2023)
Where “and” joins values, the source holds several entries; their conditions need not be identical. Equal values may be shown once. Read-outs that look alike come from different tables or passages of the source. Where a SMILES comes first, the peptide text is derived from it. [ ]: non-standard residue; d: D form. The star is where a group is joined. 5FAM = O=C1OC2(c3ccc(O)cc3Oc3cc(O)ccc32)c2ccc(C(=O)*)cc21; pS = N[C@@H](COP(=O)(O)O)C(=O)O

Key:
[1] = target: T1, PHF3 SPOC (Homo sapiens, UniProt Q92576); experiment: Fluorescence anisotropy binding of labeled peptides to PHF3 SPOC WT
T1 construct: His6-PHF3 SPOC was generated previously; His6 (N, cleaved yes); made in house; host or cells: E. coli Rosetta2 (DE3)
T1 sequence (Q92576 1199-1356 limits assumed): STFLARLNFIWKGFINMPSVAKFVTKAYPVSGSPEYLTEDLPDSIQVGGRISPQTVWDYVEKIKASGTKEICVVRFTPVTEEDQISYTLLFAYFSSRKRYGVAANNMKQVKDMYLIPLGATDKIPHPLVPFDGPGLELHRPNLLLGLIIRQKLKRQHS
Description: (§1) SPOC domains were expressed in E. coli Rosetta2 (DE3) cells (Novagen). ON cultures were diluted 1:50 in 2×TY, grown at 37 °C until OD600 = 0.8, and induced with 0.5 mM IPTG for 3 h at 30 °C. […] Elution with 25 mM Tris-Cl pH 7.4, 500 mM NaCl, and 500 mM Imidazole was followed by TEV cleavage of the His6-tag and size exclusion chromatography using Sephacryl S-200 HR 16/600 or 26/600 (Cytiva) equilibrated in 25 mM Tris-Cl pH 7.4, 25 mM NaCl, 1 mM DTT.
(§2) One molar equivalent of Atto-488 NHS ester (Atto-tec) and five equivalents of DIPEA (Sigma-Aldrich) was added to three equivalents of the peptide. Reactions were incubated ON at room temperature (RT) and protected from light. Labeled peptides were purified by reverse-phase HPLC over a C18 column (Agilent Technologies) using a gradient from 30 to 70% Methanol (Merck). Purified peptides were lyophilized and stored at −20 °C.
(§3) Fluorescence anisotropy measurements were performed on a Perkin Elmer LS50 B fluorescence spectrometer operated by Perkin Elmar FL WinLab software (version 3.00). The excitation wavelength was set to 500 nm (excitation slit 10 nm), the emission wavelength to 518 nm (emission slit 6 nm), and the integration time to 1 s. Measurements were conducted at 20 °C in 25 mM Tris-Cl pH 7.4, 25 mM NaCl, and 1 mM DTT. The grating factor was determined using unconjugated Atto-488 dye. […]

[2] = target: T2, PHF3 SPOC R1248A (Homo sapiens, UniProt Q92576, R1248A); experiment: Fluorescence anisotropy binding of labeled peptides to PHF3 SPOC R1248A; settings: 90 nM labeled peptide, 25 mM Tris-Cl pH 7.4, 25 mM NaCl, 1 mM DTT, 20 °C, three independent experiments
T2 construct: His6-PHF3 SPOC was generated previously; His6 (N, cleaved yes); made in house; host or cells: E. coli Rosetta2 (DE3)
T2 sequence (Q92576 1199-1356 R1248A limits assumed): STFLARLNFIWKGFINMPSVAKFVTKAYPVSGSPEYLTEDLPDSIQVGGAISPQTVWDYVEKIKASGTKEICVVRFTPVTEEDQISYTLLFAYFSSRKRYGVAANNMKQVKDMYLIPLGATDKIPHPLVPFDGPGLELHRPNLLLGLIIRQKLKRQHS
Excerpt: (§4) For mammalian expression, human DIDO3, SHARP, and RBM15 were amplified from HEK293T cDNA and cloned into CMV10 N3XFLAG (Sigma) by Gibson assembly (NEB). These constructs were used for cloning ΔSPOC truncations using Gibson assembly (NEB). CMV10 N3XFLAG-PHF3 and PHF3 ΔSPOC constructs were generated previously. NLS-SPOC constructs were cloned into CMV10 N3XFLAG (Sigma) between NotI and XbaI. NLS sequence ([…]) was introduced to ensure nuclear localization of the isolated SPOC domains. […] His6-PHF3 SPOC was generated previously. Arginine mutations were introduced by site-directed mutagenesis according to the FastCloning protocol. Repair templates for CRISPR/Cas9 knock-in were cloned by Gibson assembly. Primer sequences are listed in Supplementary Table 4.
(§5) SPOC domains were expressed in E. coli Rosetta2 (DE3) cells (Novagen). ON cultures were diluted 1:50 in 2×TY, grown at 37 °C until OD600 = 0.8, and induced with 0.5 mM IPTG for 3 h at 30 °C. […]
(§6) Fluorescence anisotropy measurements were performed on a Perkin Elmer LS50 B fluorescence spectrometer operated by Perkin Elmar FL WinLab software (version 3.00). […] The grating factor was determined using unconjugated Atto-488 dye. […]

[3] = target: T3, DIDO SPOC R1096A (Homo sapiens, UniProt Q9BTC0, R1096A); experiment: Fluorescence anisotropy binding of labeled peptides to DIDO SPOC R1096A; settings: 90 nM labeled peptide, 25 mM Tris-Cl pH 7.4, 25 mM NaCl, 1 mM DTT, 20 °C, three independent experiments
T3 construct: human DIDO3 SPOC (1047–1205 aa); His6 (N, cleaved yes); made in house; host or cells: E. coli Rosetta2 (DE3)
T3 sequence (Q9BTC0 1047-1205 R1096A): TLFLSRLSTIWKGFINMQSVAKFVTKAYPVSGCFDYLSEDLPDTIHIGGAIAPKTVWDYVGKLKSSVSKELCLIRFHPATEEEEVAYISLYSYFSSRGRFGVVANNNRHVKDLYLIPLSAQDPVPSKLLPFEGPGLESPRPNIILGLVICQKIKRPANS
Excerpt: as §4, §5, §6

[4] = target: T4, DIDO SPOC (Homo sapiens, UniProt Q9BTC0); experiment: Fluorescence anisotropy binding of labeled peptides to DIDO SPOC WT; settings: 90 nM labeled peptide, 25 mM Tris-Cl pH 7.4, 25 mM NaCl, 1 mM DTT, 20 °C, three independent experiments
T4 construct: human DIDO3 SPOC (1047–1205 aa); His6 (N, cleaved yes); made in house; host or cells: E. coli Rosetta2 (DE3)
T4 sequence (Q9BTC0 1047-1205): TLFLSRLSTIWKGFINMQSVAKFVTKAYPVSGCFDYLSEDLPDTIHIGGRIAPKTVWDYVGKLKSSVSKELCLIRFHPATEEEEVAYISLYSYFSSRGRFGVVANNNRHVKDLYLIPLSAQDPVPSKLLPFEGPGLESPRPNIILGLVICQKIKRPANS
Excerpt: as §4, §5, §6

[5] = target: T5, SHARP SPOC (Homo sapiens, UniProt Q96T58); experiment: Fluorescence anisotropy binding of labeled peptides to SHARP SPOC WT; settings: 90 nM labeled peptide, 25 mM Tris-Cl pH 7.4, 25 mM NaCl, 1 mM DTT, 20 °C, three independent experiments
T5 construct: SHARP SPOC (3496–3664 aa); His6 (N, cleaved yes); made in house; host or cells: E. coli Rosetta2 (DE3)
T5 sequence (Q96T58 3496-3664): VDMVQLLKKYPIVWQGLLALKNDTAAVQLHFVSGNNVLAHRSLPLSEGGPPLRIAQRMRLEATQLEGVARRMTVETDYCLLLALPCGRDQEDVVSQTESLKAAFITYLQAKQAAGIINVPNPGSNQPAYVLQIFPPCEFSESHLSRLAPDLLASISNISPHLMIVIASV

[6] = target: T6, RBM15 SPOC (Homo sapiens, UniProt Q96T37); experiment: Fluorescence anisotropy binding of labeled peptides to RBM15 SPOC WT; settings: 90 nM labeled peptide, 25 mM Tris-Cl pH 7.4, 25 mM NaCl, 1 mM DTT, 20 °C, three independent experiments
T6 construct: RBM15 SPOC (775–960 aa); His6 (N, cleaved yes); made in house; host or cells: E. coli Rosetta2 (DE3)
T6 sequence (Q96T37 775-960): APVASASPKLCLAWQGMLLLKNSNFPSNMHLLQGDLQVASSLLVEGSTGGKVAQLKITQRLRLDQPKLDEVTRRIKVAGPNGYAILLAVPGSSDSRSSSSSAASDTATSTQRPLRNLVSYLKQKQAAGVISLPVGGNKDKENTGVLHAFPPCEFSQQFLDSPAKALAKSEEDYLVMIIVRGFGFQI
Excerpt: as §4, §1, §2, §3

[7] = target: T7, SHARP SPOC R3552A (Homo sapiens, UniProt Q96T58, R3552A); experiment: Fluorescence anisotropy binding of labeled peptides to SHARP SPOC R3552A; settings: 90 nM labeled peptide, 25 mM Tris-Cl pH 7.4, 25 mM NaCl, 1 mM DTT, 20 °C, three independent experiments
T7 construct: SHARP SPOC (3496–3664 aa); His6 (N, cleaved yes); made in house; host or cells: E. coli Rosetta2 (DE3)
T7 sequence (Q96T58 3496-3664 R3552A): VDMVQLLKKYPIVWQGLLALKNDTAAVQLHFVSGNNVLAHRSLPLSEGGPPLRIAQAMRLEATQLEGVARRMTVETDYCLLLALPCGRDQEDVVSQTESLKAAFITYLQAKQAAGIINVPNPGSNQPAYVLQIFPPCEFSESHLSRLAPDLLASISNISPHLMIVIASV
Excerpt: as §4, §5, §6

With `C[C@@H](O)[C@H](NC(=O)[C@@H]1CCCN1C(=O)[C@H](CO)NC(=O)[C@H](Cc1ccc(O)cc1)NC(=O)[C@H](CO)NC(=O)[C@@H]1CCCN1C(=O)[C@H](CO)NC(=O)[C@@H](NC(=O)[C@@H]1CCCN1C(=O)[C@H](COP(=O)(O)O)NC(=O)[C@H](Cc1ccc(O)cc1)NC(=O)[C@H](CO)NC(=O)[C@@H]1CCCN1)[C@@H](C)O)C(=O)N[C@@H](CO)C(=O)N1CCC[C@H]1C(=O)N[C@@H](CO)C(=O)O` [1xS2P] the Kd [1] was 103 ± 4 µM.
`C[C@@H](O)[C@H](NC(=O)[C@@H]1CCCN1C(=O)[C@H](COP(=O)(O)O)NC(=O)[C@H](Cc1ccc(O)cc1)NC(=O)[C@H](CO)NC(=O)[C@@H]1CCCN1C(=O)[C@H](CO)NC(=O)[C@@H](NC(=O)[C@@H]1CCCN1C(=O)[C@H](COP(=O)(O)O)NC(=O)[C@H](Cc1ccc(O)cc1)NC(=O)[C@H](CO)NC(=O)[C@@H]1CCCN1)[C@@H](C)O)C(=O)N[C@@H](CO)C(=O)N1CCC[C@H]1C(=O)N[C@@H](CO)C(=O)O` [2xS2P] gave a Kd ([1]; PHF3 SPOC WT, fluorescence anisotropy, 90 nM labeled peptide titrated with SPOC domain, 25 mM Tris-Cl pH 7.4, 25 mM NaCl, 1 mM DTT, 20 °C, three independent experiments, read-out: Kd) of 0.42 ± 0.02 µM, a Kd [2] of 8.4 ± 0.3 µM and a Kd [3] of 22.4 ± 2.1 µM. For the same compound, the Kd [4] was 4.8 ± 0.6 µM.
In the case of `C[C@@H](O)[C@H](NC(=O)[C@@H]1CCCN1C(=O)[C@H](CO)NC(=O)[C@H](Cc1ccc(O)cc1)NC(=O)[C@H](CO)NC(=O)[C@@H]1CCCN1C(=O)[C@H](COP(=O)(O)O)NC(=O)[C@@H](NC(=O)[C@@H]1CCCN1C(=O)[C@H](CO)NC(=O)[C@H](Cc1ccc(O)cc1)NC(=O)[C@H](CO)NC(=O)[C@@H]1CCCN1)[C@@H](C)O)C(=O)N[C@@H](COP(=O)(O)O)C(=O)N1CCC[C@H]1C(=O)N[C@@H](CO)C(=O)O` [2xS5P], the Kd [5] is reported as 20.6 ± 0.1 µM and the Kd ([6]; read-out: Kd) is reported as 11.8 µM and 29.6 µM.
For `C[C@@H](O)[C@H](NC(=O)[C@@H]1CCCN1C(=O)[C@H](CO)NC(=O)[C@H](Cc1ccc(O)cc1)NC(=O)[C@H](COP(=O)(O)O)NC(=O)[C@@H]1CCCN1C(=O)[C@H](CO)NC(=O)[C@@H](NC(=O)[C@@H]1CCCN1C(=O)[C@H](CO)NC(=O)[C@H](Cc1ccc(O)cc1)NC(=O)[C@H](CO)NC(=O)[C@@H]1CCCN1)[C@@H](C)O)C(=O)N[C@@H](CO)C(=O)N1CCC[C@H]1C(=O)N[C@@H](COP(=O)(O)O)C(=O)O` [2xS7P], the Kd ([6]; Kd) was 23.5 ± 0.4 µM.
`CC(C)C[C@H](NC(=O)[C@H](CC(C)C)NC(=O)[C@@H]1CCCN1C(=O)[C@H](C)NC(=O)[C@@H]1CCCN1C(=O)[C@H](CCC(=O)O)NC(=O)[C@H](CCCNC(=N)N)NC(=O)c1ccc2c(c1)C(=O)OC21c2ccc(O)cc2Oc2cc(O)ccc21)C(=O)N[C@@H](CO)C(=O)N[C@@H](C)C(=O)N[C@@H](CCC(N)=O)C(=O)N[C@@H](Cc1ccc(O)cc1)C(=O)N[C@@H](CCC(=O)O)C(=O)N[C@H](C(=O)N[C@@H](CC(C)C)C(=O)N[C@@H](COP(=O)(O)O)C(=O)N[C@@H](CC(=O)O)C(=O)N[C@@H](CO)C(=O)N[C@@H](CC(=O)O)C(=O)N[C@@H](CC(=O)O)C(=O)O)[C@@H](C)O` [NCoR pS2436] (5FAM-REPAPLLSAQYETL[pS]DSDD-OH) was tested, and the Kd [7] was 23.3 ± 0.5 µM.
Work on `CC(C)C[C@H](NC(=O)[C@H](CC(C)C)NC(=O)[C@@H]1CCCN1C(=O)[C@H](C)NC(=O)[C@@H]1CCCN1C(=O)[C@H](CCC(=O)O)NC(=O)[C@H](CCCNC(=N)N)NC(=O)c1ccc2c(c1)C(=O)OC21c2ccc(O)cc2Oc2cc(O)ccc21)C(=O)N[C@@H](CO)C(=O)N[C@@H](C)C(=O)N[C@@H](CCC(N)=O)C(=O)N[C@@H](Cc1ccc(O)cc1)C(=O)N[C@@H](CCC(=O)O)C(=O)N[C@H](C(=O)N[C@@H](CC(C)C)C(=O)N[C@@H](CO)C(=O)N[C@@H](CC(=O)O)C(=O)N[C@@H](CO)C(=O)N[C@@H](CC(=O)O)C(=O)N[C@@H](CC(=O)O)C(=O)O)[C@@H](C)O` [NCoR] (5FAM-REPAPLLSAQYETLSDSDD-OH) yielded a Kd [7] of 262 ± 74.2 µM.
With `CSCC[C@H](NC(=O)c1ccc2c(c1)C(=O)OC21c2ccc(O)cc2Oc2cc(O)ccc21)C(=O)N[C@H](C(=O)N[C@@H](CC(N)=O)C(=O)N[C@@H](CCC(=O)O)C(=O)N[C@@H](CCC(=O)O)C(=O)N1CCC[C@H]1C(=O)N[C@@H](CC(C)C)C(=O)N1CCC[C@H]1C(=O)N[C@@H](CCCCN)C(=O)N[C@@H](CCCCN)C(=O)N[C@H](C(=O)N[C@@H](CCCNC(=N)N)C(=O)N[C@@H](CC(C)C)C(=O)N[C@@H](COP(=O)(O)O)C(=O)N[C@@H](CCC(=O)O)C(=O)N[C@H](C(=O)N[C@@H](CC(=O)O)C(=O)N[C@@H](Cc1ccccc1)C(=O)N[C@@H](CCCCN)C(=O)O)[C@@H](C)O)C(C)C)[C@@H](C)O` [WTAP pS14] (5FAM-MTNEEPLPKKVRL[pS]ETDFK-OH) the Kd ([6]; read-out: Kd) was 21.5 ± 1.5 µM.
